pIC50: −log10 of the molar value.

This assay has as its target T1, human OX2R (Homo sapiens, UniProt O43614).
T1 construct: expressed in transfected cells; host or cells: CHO (Chinese hamster ovary) cells, grown under G418 selection
T1 sequence (O43614 1-444): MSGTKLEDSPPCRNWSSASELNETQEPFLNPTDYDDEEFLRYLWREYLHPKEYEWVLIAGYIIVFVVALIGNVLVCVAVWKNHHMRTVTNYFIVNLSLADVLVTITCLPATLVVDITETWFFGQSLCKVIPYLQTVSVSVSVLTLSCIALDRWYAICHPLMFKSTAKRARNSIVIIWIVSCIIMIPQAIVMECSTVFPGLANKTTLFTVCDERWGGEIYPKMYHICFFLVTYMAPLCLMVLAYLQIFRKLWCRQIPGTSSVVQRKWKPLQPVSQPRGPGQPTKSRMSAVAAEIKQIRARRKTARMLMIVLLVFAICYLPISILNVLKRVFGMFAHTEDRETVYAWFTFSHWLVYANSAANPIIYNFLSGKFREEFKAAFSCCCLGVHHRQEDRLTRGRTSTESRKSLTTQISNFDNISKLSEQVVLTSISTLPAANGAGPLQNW
In words: IPOne (IP-1) orexin receptor agonist assay in CHO cells expressing human OX2R. Type of assay: cell-based. The following applies: IPOne assay, CHO cells expressing human OX2R, 2 hours incubation; read-out: hoX2R_IP IC50. The source says:
The utility of the compounds in accordance with the present invention as orexin receptor OX1R and/or OX2R agonists may be readily determined without undue experimentation by methodology well known in the art. Both the OX1R and/or OX2R G-coupled protein receptors (GPCRs) couple through the Gaq signaling pathway, which ultimately promotes calcium mobilization via inositol triphosphate (IP3) production. The half-life of IP-3 is relatively short, being rapidly metabolized to inositol monophosphate (IP-1), which can be readily detected using a commercially available assay kit (IP-One; Cisbio; cat #621PAPEC) coupled with a cell line expressing the target receptor(s) of interest. The utility of the compounds in accordance with the present invention as orexin receptor OX1R and/or OX2R agonists may be determined utilizing this assay.
In a typical experiment, the OX1 and OX2 receptor agonist activity is determined in accordance with the following general experimental method. Chinese hamster ovary (CHO) cells expressing human OX1R and/or the human OX2R were grown in Iscove's modified DMEM containing glutaMAX™, 1% G418, 100 U/mL penicillin, 100 μg/mL streptomycin and 10% heat-inactivated qualified fetal bovine serum (FBS). The OX2R cells were seeded at 10,000 cells/well/50 μL and the OX1R cells were seeded at 20,000 cells/well/50 μL into 384-well white tissue culture plates (Greiner; cat #781080). All cell/media reagents were from GIBCO-Invitrogen Corp. The seeded cell plate(s) were incubated at 37° C. with 5% CO2 and 85% humidity for 20-24 hours. On the day of the assay, assay-ready compound plates were prepared using an acoustic liquid handler (ECHO; Labcyte), which dispensed sufficient volume of test compound stock (10 mM in DMSO) or 100% DMSO to prepare 10 point, ½-log dilutions in a final volume of 202.5 nL/well in all test wells of a 384-well diamond plate (Labcyte). Following completion of assay-ready plates, importantly, the next three steps were performed with minimal delay: 1) 20 μl of 1×stimulation buffer was added to the compound plate using a Multidrop Combi (small cassette, Thermo Fisher Scientific cat #24073290); 2) culture medium was removed from the cell plate using the Bluewasher plate washer (gentle spin; BlueCatBio); 3) 14 μl of compound/stimulation buffer mixture was added to the cell plate using a Bravo liquid handler (Agilent) prior to incubating cell plates at 37° C. with 5% CO2 and 85% humidity for 1 or 2 hours (OX1R and OX2R, respectively). During this incubation, IP-one detection reagents were prepared (38:1:1 lysis buffer:D2:AB-cryptate reagents). Six μL of mixed detection reagents were added to the cell plate using a Multidrop Combi (small cassette, Thermo Fisher Scientific cat #24073290) and incubated 60 minutes at room temperature in the dark. Fluorescence signal was detected using an Envision plate reader (Perkin Elmer) [LANCE/DELFIA Dual Enh (Em: APC 665; Ex: Cy5 620)].
For each compound, data were fit to a four parameter logistic fit (ActivityBase software) and the EC50 was reported as the inflection point of the resulting curve. Percent effect for each test compound was determined as the percentage of sample raw value/mean max effect, where the mean max effect was derived from the mean raw value of 32 control wells per assay plate (using Orexin A (cat #003-30) at 1 μM for human OX1R and a reference compound at 1 uM with 100% activity previously established by comparison to Orexin A for human OX2R). The intrinsic orexin receptor agonist activity of a compound which may be used in the present invention may be determined by these assays.
As usually defined, the pIC50 is the negative decadic logarithm of the IC50, by convention in mol/L. Consider `CCS(=O)(=O)N[C@H]1C[C@@H](C)N(C(=O)OC)[C@H]1CO[C@@H]1CC[C@]2(c3ncc(F)cn3)C[C@@H]2C1` [Example 47, methyl (2R,3S,5R)-3-(ethylsulfonamido)-2-((((1R,3R,6S)-6-(5-fluoropyrimidin-2-yl)bicyclo[4.1.0]heptan-3-yl)oxy)methyl)-5-methylpyrrolidine-1-carboxylate], for which the pIC50 was 7.86.

`COC(=O)N1[C@H](C)C[C@H](NS(=O)(=O)C(F)F)[C@@H]1CO[C@H]1CC[C@@]2(c3ncc(F)cn3)C[C@H]2C1` [Example 48, methyl (2R,3S,5R)-3-((difluoromethyl)sulfonamido)-2-((((1S,3S,6R)-6-(5-fluoropyrimidin-2-yl)bicyclo[4.1.0]heptan-3-yl)oxy)methyl)-5-methylpyrrolidine-1-carboxylate]: the pIC50 was 8.85.

As for `C[C@@H]1C[C@H](NS(C)(=O)=O)[C@H](CO[C@H]2CC[C@@]3(c4ncc(F)cn4)C[C@H]3C2)N1C(=O)OCC1CC(F)C1` (stereo partly drawn) [Example 49, (3-fluorocyclobutyl)methyl (2R,3S,5R)-2-((((1S,3S,6R)-6-(5-fluoropyrimidin-2-yl)bicyclo[4.1.0]heptan-3-yl)oxy)methyl)-5-methyl-3-(methylsulfonamido)pyrrolidine-1-carboxylate], the pIC50 was 8.96.

As to `C[C@@H]1C[C@H](NS(C)(=O)=O)[C@H](CO[C@H]2CC[C@@]3(c4ncc(F)cn4)C[C@H]3C2)N1C(=O)OC[C@H]1C[C@H]1F` [Example 51, ((1R,2R)-2-fluorocyclopropyl)methyl (2R,3S,5R)-2-((((1S,3S,6R)-6-(5-fluoropyrimidin-2-yl)bicyclo[4.1.0]heptan-3-yl)oxy)methyl)-5-methyl-3-(methylsulfonamido)pyrrolidine-1-carboxylate], the pIC50 is 8.89.

Regarding `C[C@@H]1C[C@H](NS(C)(=O)=O)[C@H](CO[C@H]2CC[C@@]3(c4ncc(F)cn4)C[C@H]3C2)N1C(=O)OCCC(F)F` [Example 52, 3,3-difluoropropyl (2R,3S,5R)-2-((((1S,3S,6R)-6-(5-fluoropyrimidin-2-yl)bicyclo[4.1.0]heptan-3-yl)oxy)methyl)-5-methyl-3-(methylsulfonamido)pyrrolidine-1-carboxylate], the pIC50 is 8.85.

Consider `C[C@@H]1C[C@H](NS(C)(=O)=O)[C@H](CO[C@H]2CC[C@@]3(c4ncc(F)cn4)C[C@H]3C2)N1C(=O)OCC1(F)CCC1` [Example 53, (1-fluorocyclobutyl)methyl (2R,3S,5R)-2-((((1S,3S,6R)-6-(5-fluoropyrimidin-2-yl)bicyclo[4.1.0]heptan-3-yl)oxy)methyl)-5-methyl-3-(methylsulfonamido)pyrrolidine-1-carboxylate], for which the pIC50 is 8.21.

As to `C[C@@H]1C[C@H](NS(C)(=O)=O)[C@H](CO[C@H]2CC[C@@]3(c4ncc(F)cn4)C[C@H]3C2)N1C(=O)OCC(F)C1CCC1` (stereo partly drawn) [Example 54, 2-cyclobutyl-2-fluoroethyl (2R,3S,5R)-2-((((1S,3S,6R)-6-(5-fluoropyrimidin-2-yl)bicyclo[4.1.0]heptan-3-yl)oxy)methyl)-5-methyl-3-(methylsulfonamido)pyrrolidine-1-carboxylate], the pIC50 is 8.22.

With `C[C@@H]1C[C@H](NS(C)(=O)=O)[C@H](CO[C@H]2CC[C@@]3(c4ncc(F)cn4)C[C@H]3C2)N1C(=O)OC[C@H]1[C@H](C)C1(F)F` [Example 55, ((1R,3S)-2,2-difluoro-3-methylcyclopropyl)methyl (2R,3S,5R)-2-((((1S,3S,6R)-6-(5-fluoropyrimidin-2-yl)bicyclo[4.1.0]heptan-3-yl)oxy)methyl)-5-methyl-3-(methylsulfonamido)pyrrolidine-1-carboxylate], the pIC50 is 9.00.

As for `C[C@@H]1C[C@H](NS(C)(=O)=O)[C@H](CO[C@H]2CC[C@@]3(c4ncc(F)cn4)C[C@H]3C2)N1C(=O)O[C@H]1COC[C@@H]1F` [Example 56, (3S,4S)-4-fluorotetrahydrofuran-3-yl (2R,3S,5R)-2-((((1S,3S,6R)-6-(5-fluoropyrimidin-2-yl)bicyclo[4.1.0]heptan-3-yl)oxy)methyl)-5-methyl-3-(methylsulfonamido)pyrrolidine-1-carboxylate], the pIC50 was 8.04.

On to `C[C@@H]1C[C@H](NS(C)(=O)=O)[C@H](CO[C@H]2CC[C@@]3(c4ncc(F)cn4)C[C@H]3C2)N1C(=O)OCC1(C)CC1(F)F` (stereo partly drawn) [Example 57, (2,2-difluoro-1-methylcyclopropyl)methyl (2R,3S,5R)-2-((((1S,3S,6R)-6-(5-fluoropyrimidin-2-yl)bicyclo[4.1.0]heptan-3-yl)oxy)methyl)-5-methyl-3-(methylsulfonamido)pyrrolidine-1-carboxylate], for which the pIC50 was 8.85.

With `CC(F)COC(=O)N1[C@H](C)C[C@H](NS(C)(=O)=O)[C@@H]1CO[C@H]1CC[C@@]2(c3ncc(F)cn3)C[C@H]2C1` (stereo partly drawn) [Example 58, 2-fluoropropyl (2R,3S,5R)-2-((((1S,3S,6R)-6-(5-fluoropyrimidin-2-yl)bicyclo[4.1.0]heptan-3-yl)oxy)methyl)-5-methyl-3-(methylsulfonamido)pyrrolidine-1-carboxylate], the negative-log IC50 (pIC50) is 8.70.

As for `C[C@@H]1C[C@H](NS(C)(=O)=O)[C@H](CO[C@H]2CC[C@@]3(c4ncc(F)cn4)C[C@H]3C2)N1C(=O)OCC1CC1(F)F` (stereo partly drawn) [Example 59, (2,2-difluorocyclopropyl)methyl (2R,3S,5R)-2-((((1S,3S,6R)-6-(5-fluoropyrimidin-2-yl)bicyclo[4.1.0]heptan-3-yl)oxy)methyl)-5-methyl-3-(methylsulfonamido)pyrrolidine-1-carboxylate], the pIC50 was 9.15.

On to `CCC(F)(F)COC(=O)N1[C@H](C)C[C@H](NS(C)(=O)=O)[C@@H]1CO[C@H]1CC[C@@]2(c3ncc(F)cn3)C[C@H]2C1` [Example 60, 2,2-difluorobutyl (2R,3S,5R)-2-((((1S,3S,6R)-6-(5-fluoropyrimidin-2-yl)bicyclo[4.1.0]heptan-3-yl)oxy)methyl)-5-methyl-3-(methylsulfonamido)pyrrolidine-1-carboxylate], for which the pIC50 is 8.85.

For `C[C@@H]1C[C@H](NS(C)(=O)=O)[C@H](CO[C@H]2CC[C@@]3(c4ncc(F)cn4)C[C@H]3C2)N1C(=O)OCC1(F)CC1` [Example 61, (1-fluorocyclopropyl)methyl (2R,3S,5R)-2-((((1S,3S,6R)-6-(5-fluoropyrimidin-2-yl)bicyclo[4.1.0]heptan-3-yl)oxy)methyl)-5-methyl-3-(methylsulfonamido)pyrrolidine-1-carboxylate], the pIC50 is 8.64.

As to `C[C@@H]1C[C@H](NS(C)(=O)=O)[C@H](CO[C@H]2CC[C@@]3(c4ncc(F)cn4)C[C@H]3C2)N1C(=O)OCCF` [Example 62, 2-Fluoroethyl (2R,3S,5R)-2-((((1S,3S,6R)-6-(5-fluoropyrimidin-2-yl)bicyclo[4.1.0]heptan-3-yl)oxy)methyl)-5-methyl-3-(methylsulfonamido)pyrrolidine-1-carboxylate], the pIC50 was 8.77.

The values are drawn from patent US20230365533A1, “BICYCLOHEPTANE PYRROLIDINE OREXIN RECEPTOR AGONISTS” (MERCK SHARP & DOHME CORP., priority 2021, published 2023).
